Measured values reported in patent US12435061B2 (priority 2020, dated 2025).
pIC50: −log10 of the molar value. Counter-ions that a name gives are not always drawn. Like-named read-outs stand apart in the source and are kept apart here.

Target: hTRPV3 (Homo sapiens (Human), UniProt Q8NET8)
Test: Whole-cell patch clamp, hTRPV3 Phase 1 / Phase 2 currents
Assay type: cell-based
Settings: for pIC50: inward, whole-cell patch clamp
Summary of the method: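 Currents are activated by 20 μM 2-APB or by perfusate at 28 °C or warmer, in Ringer's solution, and quantified at ±80 mV.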

[1] = Phase 1 current, human TRPV3, read-out: hTRPV3 (nM) Phase 1
[2] = Phase 1 current, read-out: hTRPV3 Patch P1 Inwd
[3] = Phase 1 current, read-out: hTRPV3 (nM) (Phase 1)
[4] = Phase 2 current, read-out: hTRPV3 Patch P2 Inwd
[5] = Phase 2 current, read-out: hTRPV3 (nM) (Phase 2)

Chain of hTRPV3 (Q8NET8 whole entry): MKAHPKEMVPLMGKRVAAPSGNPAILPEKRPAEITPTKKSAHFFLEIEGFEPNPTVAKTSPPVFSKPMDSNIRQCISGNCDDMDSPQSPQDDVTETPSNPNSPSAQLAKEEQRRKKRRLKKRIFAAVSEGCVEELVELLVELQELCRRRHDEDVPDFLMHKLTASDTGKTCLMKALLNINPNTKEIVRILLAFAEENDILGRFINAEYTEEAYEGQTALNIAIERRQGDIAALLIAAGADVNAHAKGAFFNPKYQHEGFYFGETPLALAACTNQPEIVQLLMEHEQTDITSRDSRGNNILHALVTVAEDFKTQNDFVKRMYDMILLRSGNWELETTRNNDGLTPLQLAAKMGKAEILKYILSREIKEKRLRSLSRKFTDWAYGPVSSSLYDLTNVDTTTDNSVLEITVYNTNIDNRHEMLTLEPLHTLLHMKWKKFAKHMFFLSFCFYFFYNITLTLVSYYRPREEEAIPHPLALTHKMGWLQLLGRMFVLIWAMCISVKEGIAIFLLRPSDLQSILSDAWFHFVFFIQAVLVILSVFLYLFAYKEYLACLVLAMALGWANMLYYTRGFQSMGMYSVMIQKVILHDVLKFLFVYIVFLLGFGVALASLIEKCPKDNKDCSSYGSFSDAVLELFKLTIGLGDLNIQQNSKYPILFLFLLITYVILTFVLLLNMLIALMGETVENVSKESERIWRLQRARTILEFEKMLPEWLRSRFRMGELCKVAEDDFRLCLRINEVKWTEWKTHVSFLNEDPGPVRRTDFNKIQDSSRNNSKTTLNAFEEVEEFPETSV

SMILES	IC50 [1]	pIC50 [2]	IC50 [3]	pIC50 [4]	IC50 [5]	IC50 (Phase 2 current, human TRPV3, read-out: hTRPV3 (nM) Phase 2)
COc1ccc(C(=O)N2CCC(c3ccc(-c4ccccc4C4CC4)cc3CO)C2)nc1 (centres unmarked) [Compound 2-76, (3-(2′-cyclopropyl-3-(hydroxymethyl)biphenyl-4-yl)pyrrolidin-1-yl)(5-methoxypyridin-2-yl)methanone]	71 nM	7.00 to 8.00				
O=C(c1ccc(N2CC[C@H](Oc3ccccn3)C2)c(CO)c1)c1ccccc1Cl [Compound 1-332, (S)-(2-chlorophenyl)(3-(hydroxymethyl)-4-(3-(pyridin-2-yloxy)pyrrolidin-1-yl)phenyl) methanone]		< 6.00	> 3200 nM	< 6.00	> 3200 nM	
CN(C)Cc1ccccc1N1CC[C@@H](Oc2ccc(C(F)(F)F)cn2)C1 [Compound 1-60, (R)—N,N-dimethyl-1-(2-(3-(5-(trifluoromethyl)pyridin-2-yloxy)pyrrolidin-1-yl)phenyl) methanamine hydrochloride]		< 6.00		< 6.00		
CC(C)NC(=O)c1ccccc1N1CC[C@H](Oc2ccc(C(F)(F)F)cn2)C1 [Compound 1-46, (S)—N-isopropyl-2-(3-(5-(trifluoromethyl)pyridin-2-yloxy)pyrrolidin-1-yl)benzamide]		< 6.00				
Cc1cccc(Oc2ccc(N3CC[C@H](Oc4ncccc4Cl)C3)c(CO)c2)c1 [Compound 1-242, (S)-(2-(3-(3-chloropyridin-2-yloxy)pyrrolidin-1-yl)-5-(m-tolyloxy)phenyl)methanol]		7.00 to 8.00	37 nM			
OCCc1cc(C(O)c2ccc(Cl)cc2)ccc1N1CC[C@H](Oc2ncccc2Cl)C1 (stereo partly drawn) [Compound 1-292, 2-(5-((4-chlorophenyl)(hydroxy)methyl)-2-((S)-3-(3-chloropyridin-2-yloxy)pyrrolidin-1-yl)phenyl)ethanol]		< 6.00	~4900 nM	< 6.00	~5100 nM	
O=C(Nc1ccccc1)c1ccc(N2CC[C@H](Oc3ncccc3Cl)C2)c(CCO)c1 [Compound 1-320, (S)-4-(3-(3-chloropyridin-2-yloxy)pyrrolidin-1-yl)-3-(2-hydroxyethyl)-N-phenylbenzamide]		< 6.00	~4660 nM			
NC(=O)c1cc(-c2ccccc2)ccc1N1CC[C@H](Nc2ccc(C(F)(F)F)cn2)C1 [Compound 1-372, (S)-4-(3-(5-(trifluoromethyl)pyridin-2-ylamino)pyrrolidin-1-yl)biphenyl-3-carboxamide]		< 6.00		< 6.00		
COC(=O)c1cc(-c2ccccc2C(C)C)ccc1C1CCN(C(=O)C(F)(F)F)C1 (centres unmarked) [Compound 2-120]	> 3200 nM					
CC(=O)c1cc(F)ccc1Oc1ccc(N2CC[C@H](Oc3ccccn3)C2)c(CO)c1 [Compound 1-343]		6.00 to 7.00	199 nM			
OCCCc1cc(-c2ccccc2)ccc1N1CC[C@H](Oc2ncccc2C(F)(F)F)C1 [Compound 1-170, (S)-3-(4-(3-(3-(trifluoromethyl)pyridin-2-yloxy)pyrrolidin-1-yl)biphenyl-3-yl)propan-1-ol]				6.00 to 7.00	551 nM	
NCc1cc(-c2ccccc2)ccc1N1CC[C@H](Oc2ccc(C(F)(F)F)cn2)C1 [Compound 1-119, (S)-(4-(3-(5-(trifluoromethyl)pyridin-2-yloxy)pyrrolidin-1-yl)biphenyl-3-yl)methanamine]				< 6.00	> 3200 nM	
N#Cc1ccccc1N1CC[C@H](Oc2ccc(C(F)(F)F)cn2)C1 [Compound 1-11, (S)-2-(3-(5-(trifluoromethyl)pyridin-2-yloxy)pyrrolidin-1-yl)benzonitrile]		< 6.00				
Cc1ccc(O[C@H]2CCN(c3ccc(-c4ccccc4C)nc3CO)C2)nc1 [Compound 1-189, (S)-(3-(3-(5-methylpyridin-2-yloxy)pyrrolidin-1-yl)-6-o-tolylpyridin-2-yl)methanol]		6.00 to 7.00	636 nM	< 6.00	1120 nM	
CCc1ccccc1C(=O)c1ccc(N2CC[C@H](Nc3ncccc3Cl)C2)c(CO)c1 [Compound 1-384, (S)-(4-(3-(3-chloropyridin-2-ylamino)pyrrolidin-1-yl)-3-(hydroxymethyl)phenyl)(2-ethylphenyl)methanone]		6.00 to 7.00	495 nM			
CC(C)c1ccccc1Oc1ccc(C2CCN(Cc3cccc(Cl)n3)C2)c(CO)c1 (centres unmarked) [Compound 2-96, (2-(1-((6-chloropyridin-2-yl)methyl)pyrrolidin-3-yl)-5-(2-isopropylphenoxy)phenyl)methanol hydrochloride]	246 nM	6.00 to 7.00				
CC(C)(C)NS(=O)(=O)c1cc(-c2ccccc2)ccc1N1CCC(Oc2ccc(C(F)(F)F)cn2)C1 (stereo in doubt) [Compound 1-96, (S)—N-tert-butyl-4-(3-(5-(trifluoromethyl)pyridin-2-yloxy)pyrrolidin-1-yl)biphenyl-3-sulfonamide]		< 6.00	> 3200 nM	< 6.00	> 3200 nM	
Cc1ccc(C(=O)c2ccc(N3CC[C@H](Oc4ncccc4F)C3)c(CCO)c2)cc1 [Compound 1-309, (S)-(4-(3-(3-fluoropyridin-2-yloxy)pyrrolidin-1-yl)-3-(2-hydroxyethyl)phenyl)(p-tolyl)methanone]		< 6.00	~2080 nM	6.00 to 7.00	822 nM	

SMILES	IC50 [1]	pIC50 [2]	IC50 [3]	pIC50 [4]	IC50 [5]	IC50 (Phase 2 current, human TRPV3, read-out: hTRPV3 (nM) Phase 2)
Cc1cnc(C(=O)N2CCC(c3ccc(-c4ccccc4C4CC4)cc3CO)C2)cn1 (centres unmarked) [Compound 2-106, (3-(2′-cyclopropyl-3-(hydroxymethyl)biphenyl-4-yl)pyrrolidin-1-yl)(5-methylpyrazin-2-yl)methanone]	67 nM	7.00 to 8.00				
FC(F)(F)c1ccc(O[C@@H]2CCN(c3ccccc3OC3CCCC3)C2)nc1 [Compound 1-36, (R)-2-(1-(2-(cyclopentyloxy)phenyl)pyrrolidin-3-yloxy)-5-(trifluoromethyl)pyridine]		< 6.00				
CCc1ccccc1C(=O)c1ccc(C2CCN(C(=O)c3ncccc3Cl)C2)c(CO)c1 (centres unmarked) [Compound 2-15, (4-(1-(3-chloropicolinoyl)pyrrolidin-3-yl)-3-(hydroxymethyl)phenyl)(2-ethylphenyl)methanone]	> 3200 nM	< 6.00				
O=C(c1ccc(F)cc1)c1ccc(N2CC[C@H](Oc3ncccc3F)C2)c(CO)c1 [Compound 1-293, (S)-(4-fluorophenyl)(4-(3-(3-fluoropyridin-2-yloxy)pyrrolidin-1-yl)-3-(hydroxymethyl)phenyl)methanone]		6.00 to 7.00	329 nM	6.00 to 7.00	322 nM	
CC(C)c1ccccc1Oc1ccc(C2CCN(C(=O)Cc3ncccc3Cl)C2)c(CO)c1 (centres unmarked) [Compound 2-117]	~3500 nM					2620 nM
OCc1cc(-c2ccccc2)ccc1N1CC[C@H](Oc2ccc(Cl)cn2)C1 [Compound 1-147, (S)-(4-(3-(5-chloropyridin-2-yloxy)pyrrolidin-1-yl)biphenyl-3-yl)methanol]		6.00 to 7.00	171 nM			
Cc1cccc(CN2CC(c3ccc(Oc4ccccc4C(C)C)cc3C(N)=O)CC2=O)n1 (centres unmarked) [Compound 2-97, 5-(2-isopropylphenoxy)-2-(1-((6-methylpyridin-2-yl)methyl)-5-oxopyrrolidin-3-yl)benzamide]	> 3200 nM	< 6.00				
OCc1cc(Oc2ccc(Cl)c(C(F)(F)F)c2)ccc1N1CC[C@H](Oc2ccccn2)C1 [Compound 1-303]		7.00 to 8.00	56.3 nM			
COCc1ccc(C(=O)c2ccc(N3CC[C@H](Oc4ncccc4Cl)C3)c(CO)c2)cc1 [Compound 1-286]		6.00 to 7.00	607 nM			
OCCc1cc(C(O)c2ccc(F)cc2)ccc1N1CC[C@H](Oc2ncccc2Cl)C1 (stereo partly drawn) [Compound 1-296, 2-(2-((S)-3-(3-chloropyridin-2-yloxy)pyrrolidin-1-yl)-5-((4-fluorophenyl)(hydroxy)methyl)phenyl)ethanol]		< 6.00	1070 nM	< 6.00	2160 nM	
OCc1cc(C2=CCOCC2)ccc1N1CC[C@H](Oc2ccc(C(F)(F)F)cn2)C1 [Compound 1-280, (S)-(5-(3,6-dihydro-2H-pyran-4-yl)-2-(3-(5-(trifluoromethyl)pyridin-2-yloxy)pyrrolidin-1-yl)phenyl)methanol]		< 6.00	~3600 nM			
O=C(c1ccc(Cl)cn1)N1CCC(c2ccc(-c3ccccc3)nc2CO)C1 (centres unmarked) [Compound 2-82]	836 nM	6.00 to 7.00				
FC(F)(F)c1ccc(O[C@@H]2CCN(c3ccccc3OCc3ccccc3)C2)nc1 [Compound 1-38, (R)-2-(1-(2-(benzyloxy)phenyl)pyrrolidin-3-yloxy)-5-(trifluoromethyl)pyridine]		< 6.00				
O=C1C(Oc2ccc3ccccc3n2)CCN1c1ccccc1 (centres unmarked) [Compound 1-104, 1-phenyl-3-(quinolin-2-yloxy)pyrrolidin-2-one]		< 6.00	> 3200 nM			
NC(=O)c1cc(-c2ccccn2)ccc1N1CC[C@@H](Oc2ccccn2)C1 [Compound 1-88, (R)-5-(pyridin-2-yl)-2-(3-(pyridin-2-yloxy)pyrrolidin-1-yl)benzamide]		< 6.00	> 3200 nM	< 6.00	> 3200 nM	
O=C(c1ccc(F)cc1)c1ccc(C2CCN(C(=O)c3ncccc3Cl)C2)c(CO)c1 (centres unmarked) [Compound 2-10, (4-(1-(3-chloropicolinoyl)pyrrolidin-3-yl)-3-(hydroxymethyl)phenyl)(4-fluorophenyl)methanone]	> 3200 nM	< 6.00				
CCc1ccccc1-c1ccc(N2CC[C@H](Oc3ccc(C(F)(F)F)cn3)C2)c(CO)c1 [Compound 1-149, (S)-(2′-ethyl-4-(3-(5-(trifluoromethyl)pyridin-2-yloxy)pyrrolidin-1-yl)biphenyl-3-yl)methanol]		7.00 to 8.00	34.7 nM	> 8.00	10.7 nM	
